# Laboratory results as given in patent US9539257B2, “Method of treating cancer” (NOVARTIS AG, priority 2009, dated 2017).
# Key:
# TNXB rs12153855 = assay: ALT case-control genetic association, exploratory study; assay type: in vivo, human; conditions: TNXB rs12153855 CC/CT
# Excerpt: Germline DNA was extracted from peripheral blood (QiAmp DNA Blood Kit, Qiagen, Valencia, Calif.). This study evaluated candidate gene and genome-wide screening, performed in parallel, to detect case-control association signals in the exploratory cohort. Class I and II HLA genes (seven genes to 4-digit and three genes to 2-digit resolution) were typed by Laboratory Corporation of America (Burlington, N.C.) and Histogenetics (Ossining, N.Y.), or at GSK using the LABType® SSO Typing Test (One Lambda, Canoga Park, Calif.). […] Whole genome screen genotyping on the Illumina Human 1M-Duo platform was also conducted (Expression Analysis, Durham, N.C.).
# For the exploratory study, initial analysis of the GWAS was done using logistic regression, carried out in PLINK (Purcell S, et al. American Journal of Human Genetics 2007; 81, 559-575) using the genotypic test option when three genotype classes were observed, or the additive test option when only two genotype classes were observed. […] In addition to the genotype term, all models included baseline ALT xULN, treatment group (for the exploratory study), and a sufficient number of principal components to account for potential confounding by population structure. Principal components were obtained from EIGENSOFT (Patterson N. et al. PLoS Genetics 2006; 2: e190), using study subjects and HapMap founders.
# (§1) Genetic markers selected for confirmatory were required to achieve pre-defined p-value thresholds in the exploratory analysis of p≦0.05 for HLA markers, p≦0.01 for candidate gene markers and p≦10-4 for whole genome screen SNPs. For markers confirmed at p≦0.01, measures of potential clinical utility were evaluated. An allele or genotype(s) was designated which conferred a higher risk of ALT elevation and this was compared to the non-risk allele(s)/genotype(s) and the odds ratio (OR), positive predictive value (PPV), and negative predictive value (NPV) calculated.
# DQA1*0201/DQB1*0201g = assay: ALT case/non-case association with DQ2.2 serotype allele combinations, confirmatory study; assay type: in vivo, human
# Procedure: as §1
# HLA Class II peptides form heterodimer proteins where DQA1/DQB1 and DRA/DRB1 combinations create discrete antigen binding sites (Jones E Y, et al. Nature Reviews: Immunology 2006; 6; 271-282). HLA-DRA is functionally monomorphic and no further marker discrimination can be gained by evaluating specific allelic combinations. In contrast, both DQA1*0201 and DQB1*0202 are polymorphic.
# UGT1A1*28 = conditions: exploratory
# Procedure: The two phenotypes that were evaluated were maximum on-treatment liver chemistry values for ALT and TBL with respect to the upper limit of normal. These phenotypes were evaluated separately in case-control and quantitative trait analyses and jointly in a combined case-control analysis. ALT and TBL cases were defined as maximum on-treatment elevations of ≧3×ULN and ≧1.5×ULN, respectively, and control subjects were defined as maximum on-treatment ALT or TBL of ≦1×ULN.
# 2) As genetic understanding of drug-induced liver injury is limited, a comprehensive drug induced liver injury (DILI) panel, developed by GSI in consultation with external liver experts was also evaluated. This DILI panel is comprised of approximately 6500 single nucleotide polymorphisms (SNPs) in 270 gene regions derived from the postulated mechanisms involved in the pathophysiology of DILI. In both approaches, genetic variation in each gene region was investigated using tag SNPs selected from the International HapMap project and/or high density SNP coverage consisting of all functional SNPs with a previously recorded genotype to phenotype correlation. […] Evaluation of HLA genes focused on a subset of the total number of patients consisting of all ALT cases (N=47) and matched controls (N=47).
# [1] = On-treatment liver chemistry (ALT, TBL, ALP), exploratory study PGx population, twelve AMBC trials
# [2] = DQA1*0201/DQB1*0201g carriage, cases vs non-cases, ALT > 3 xULN, Confirmatory study
# [3] = DQA1*0201/DQB1*0201g, ALT > 3 xULN threshold, Confirmatory study
# [4] = Exploratory Study ALT Cases (N=37)
# [5] = Exploratory Study ALT Cases with HLA Data Available, at time of maximum ALT
# [6] = Exploratory Study ALT Controls (N=286)
# [7] = Exploratory Study PGx Population (12 trials, N=901), lapatinib monotherapy or combinations
# [8] = Exploratory Study PGx Population (N=901)
# Procedure for HLA-DRB1*0701: The two phenotypes that were evaluated were maximum on-treatment liver chemistry values for ALT and TBL with respect to the upper limit of normal. These phenotypes were evaluated separately in case-control and quantitative trait analyses and jointly in a combined case-control analysis. ALT and TBL cases were defined as maximum on-treatment elevations of ≧3×ULN and ≧1.5×ULN, respectively, and control subjects were defined as maximum on-treatment ALT or TBL of ≦1×ULN. Approximately 950 patients with an adequate, fully consented DNA sample had available clinical data for these phenotypes. After subject genotyping quality control was completed, a total of 947 patients remained for pharmacogenetic analyses on at least one genetic variant.
compound,measurement,setting,value
"CS(=O)(=O)CCNCc1ccc(-c2ccc3ncnc(Nc4ccc(OCc5cccc(F)c5)c(Cl)c4)c3c2)o1 [lapatinib, N-(3 chloro-4-{[(3-fluorophenyl)methyl]oxy}phenyl)-6-[5-({[2 (methylsulfonyl)ethyl]amino}methyl)-2-furanyl]-4-quinazolinamine bis(4 methylbenzenesulfonate)monohydrate]",Carriage: cases (%),TNXB rs12153855; ALT cases,(35%)
same,Carriage: cases (n/N),TNXB rs12153855; ALT cases,12/34
same,Carriage: controls (%),TNXB rs12153855; ALT controls,(17%)
same,Carriage: controls (n/N),TNXB rs12153855; ALT controls,47/281
same,HLA Carrier: Cases (number),"DQA1*0201/DQB1*0201g; DQA1*0201/DQB1*0201g (DQ2.2 serotype), ALT Cases > 3 xULN, Confirmatory study",17
same,NPV (CI),DQA1*0201/DQB1*0201g; [2],"0.976 (0.951, 0.990)"
same,OR (CI),DQA1*0201/DQB1*0201g; [2],"10.2 (3.8, 30.0)"
same,PPV (CI),DQA1*0201/DQB1*0201g; [2],"0.20 (0.12, 0.30)"
same,HLA Carrier: Non Cases (number),DQA1*0201/DQB1*0201g; [3],67
same,HLA Non-Carrier: Non Cases (number),DQA1*0201/DQB1*0201g; [3],281
same,HLA Non-Carrier: Cases (number),"DQA1*0201/DQB1*0201g; DQA1*0201/DQB1*0201g, ALT Cases > 3 xULN, Confirmatory study",7
same,DQA1*0201/DQB1*0201g allele combinations in ALT cases,DQA1*0201/DQB1*0201g; confirmatory study (17/24),71%
same,DQA1*0201/DQB1*0201g allele combinations in non-cases,DQA1*0201/DQB1*0201g; confirmatory study (67/348),19%
same,TBL cases with TA7/TA7 genotype,UGT1A1*28; TBL cases (N=60),Thirty five
same,TBL cases with at least one TA7 allele,UGT1A1*28; TBL cases (N=60),82%
same,TBL controls with TA7/TA7 genotype,UGT1A1*28; controls (N=396),5%
same,TBL controls with at least one TA7 allele,UGT1A1*28; controls (N=396),48%
same,combined ALT/TBL cases with at least one of the significant HLA alleles,"HLA-DRB1*0701; exploratory, 4/13 combined cases, HLA-DRB1*0701 or HLA-B*4403",31%
same,ALT cases with at least one copy of HLA-DRB1*0701,"HLA-DRB1*0701; matched case-control, 47 cases",40%
same,ALT controls with at least one copy of HLA-DRB1*0701,"HLA-DRB1*0701; matched case-control, 47 controls",13%
same,Maximum on treatment ALT xULN: Mean(SD),[1]; [4],6.47(6.57) xULN
same,Maximum on treatment ALT xULN: Median,[1]; [4],4.70 xULN
same,N of ALT cases with Cholestatic injury type,[1]; [5],4
same,N of ALT cases with Hepatocellular injury type,[1]; [5],21
same,N of ALT cases with Mixed injury type,[1]; [5],10
same,Maximum on treatment ALT xULN: Mean(SD),[1]; [6],0.59(0.21) xULN
same,Maximum on treatment ALT xULN: Median,[1]; [6],0.59 xULN
same,Maximum on treatment ALT xULN: Mean(SD),[1]; [7],1.29 (1.96) xULN
same,Maximum on treatment ALT xULN: Median,[1]; [7],0.80 xULN
same,Maximum on treatment ALP xULN: Mean(SD),[1]; [8],1.34 (1.40) xULN
same,Maximum on treatment ALP xULN: Median,[1]; [8],0.91 xULN
same,Maximum on treatment ALT > 3 xULN (%),[1]; [8],7.3%
same,Maximum on treatment ALT > 5 xULN (%),[1]; [8],2.7%
same,Maximum on treatment ALT > 8 xULN (%),[1]; [8],1.0%
same,Maximum on treatment TBL xULN: Median,[1]; [8],0.68 xULN
